Experimental data reported in patent publication US8207180B2, “Tricyclic indoles and (4,5-dihydro) indoles” (Nerviano Medical Sciences S.R.L., priority 2006, dated 2012).
Where a name gives a salt, the structure may show the parent alone.

Experiments:
Cdc7/Dbf4 = Cdc7/Dbf4 (Homo sapiens, UniProt O00311); assay: Inhibition assay of Cdc7/Dbf4 activity (Dowex resin capture, 33P-ATP, MCM2 substrate); format: biochemical; conditions: MCM2 6 μM, ATP 2 μM, enzyme 2 nM, 60 min rt
Experimental: Inhibition Assay of Cdc7 Activity
The inhibiting activity of putative Cdc7 inhibitors and the potency of selected compounds is determined through a method of assay based on the use of Dowex resin capture technology.
The assay consists of the transfer of radioactivity labeled phosphate moiety by the kinase to an acceptor substrate. The resulting 33P-labeled product is separated from unreacted tracer, transferred into a scintillation cocktail and light emitted is measured in a scintillation counter.
The inhibition assay of Cdc7/Dbf4 activity is performed according to the following protocol.
The MCM2 substrate is trans-phosphorylated by the Cdc7/Dbf4 complex in the presence of ATP traced with γ^33-ATP. The reaction is stopped by addition of Dowex resin in the presence of formic acid. Dowex resin particles capture unreacted γ^33-ATP and drag it to the bottom of the well while ^33P phosphorylated MCM2 substrate remains in solution. The supernatant is collected, transferred into Optiplate plates and the extent of substrate phosphorylation is evaluated by β counting.
The inhibition assay of Cdc7/Dbf4 activity was performed in 96 wells plate according to the following protocol.
To each well of the plate were added: • 10 μl test compound (10 increasing concentrations in the nM to uM range to generate a dose-response curve). The solvent for test compounds contained 3% DMSO. (final concentration 1%) • 10 μl substrate MCM2 (6 μM final concentration), a mixture of cold ATP (2 μM final concentration) and radioactive ATP (1/5000 molar ratio with cold ATP). • 10 μl enzyme (Cdc7/Dbf4, 2 nM final concentration) that started the reaction. The buffer of the reaction consisted in 50 mM HEPES pH 7.9 containing 15 mM MgCl2, 2 mM DTT, 3 uM NaVO3, 2 mM glycerophosphate and 0.2 mg/ml BSA. • After incubation for 60 minutes at room temperature, the reaction was stopped by adding to each well 150 μl of Dowex resin in the presence of 150 mM formic acid. After other 60 min incubation, 50 μl of suspension were withdrawn and transferred into 96-well OPTIPLATEs containing 150 μl of MicroScint 40 (Packard); after 5-10 minutes shaking the plates were read for 1 min in a Packard TOP-Count radioactivity reader.
IC50 determination: inhibitors were tested at different concentrations ranging from 0.0005 to 10 μIM. Experimental data were analyzed by the computer program Assay Explorer using the four parameter logistic equation: y=bottom+(top−bottom)/(1+10^((log IC50−x)*slope)) where x is the logarithm of the inhibitor concentration, y is the response; y starts at bottom and goes to top with a sigmoid shape.

AKT-1 = AKT-1 (Homo sapiens, UniProt P31749); assay: AKT kinase inhibition assay: Dowex technique (AKT1, Aktide substrate); format: biochemical; conditions: AKT1 5 nM, Aktide 30 μM, ATP 132 μM, 60 min rt
From the text: Method for AKT Kinase Inhibition Assay: Dowex Technique
General Principle for Kinase Inhibition Assays
Specific peptide or protein substrates are trans-phosphorylated by their specific serine -threonine or tyrosine kinase, in the presence of ATP traced with ^33Pγ-ATP, and in the presence of their own optimal buffer and cofactors.
At the end of the phosphorylation reaction, more than 98% cold ATP and radioactive ATP is captured by an excess of the ion exchange dowex resin; the resin then settles down to the bottom of the reaction plate by gravity.
Supernatant, containing the phosphorylated substrate, is subsequently withdrawn and transferred into a counting plate, then evaluated by β-counting.
• TRIS 50 mM, pH 7.5 • MgCl2 10 mM • DTT 1 mM • NaVO3 […] • BSA 0.2 mg/ml • Assay conditions (final concentrations) for AKT1 • Enzyme concentration (AKT1)=5 nM • Substrate concentration (Aktide, 14 residues peptide, from PRIMM)=30 μM • ATP=132 μM • ^33P-γ-ATP=0.88 nM Robotized Dowex Assay
The “test” mixture consisted of: • 1) 3× Enzyme mix (done in Kinase Buffer 3×), 5 μl/well • 2) 3× substrate and ATP mix (done in DDH2O), together with ^33P-γ-ATP, 5 μl/well • 3) 3× test compounds (diluted into DDH2O-3% DMSO)-5 μl/well Dilution of Compounds
Test compounds are received as 100% DMSO solution at the indicated concentrations: • i—for % inhibition studies, individual dilution plates at 1 mM, 100 μM and 10 μM are prepared in 100% DMSO, then diluted at a 3× concentration (30, 3 and 0.3 μM) in DDH2O, 3% DMSO. A Multimek 96 (Beckman) is used for dilutions and compound pipetting into the test plates • ii—for IC50 determination, compounds are received as 1 mM, 100% DMSO solutions, plated into the first column of a microtiter plate (A1 to G1), 100 μl.
Well H1 is left empty for the internal standard inhibitor, staurosporine.
A Biomek 2000 (Beckman) is used for serial 1:3 dilutions in water, 3% DMSO, from column A1 to A10 and for all the seven compounds in the plate. In a standard experiment, the highest concentration of all compounds is 30 μM, then diluted in the final test mixture down to 10 μM.
384-well plates, V bottom (test plates) are prepared with 5 μl of the compound dilution (3×) and then placed onto a PlateTrak 12 robotized station (Perkin Elmer; the robot has one 384-tips pipetting head for starting the assay plus one 96-tips head for dispensing the resin) together with one reservoir for the Enzyme mix (3×) and one for the ATP mix (3×).
At the start of the run, the robot aspirates 5 μl of ATP mix, makes an air gap inside the tips (3 μl) and aspirates 5 μl of AKT mix. The following dispensation into the plates allows the kinase reaction to start upon 3 cycles of mixing, done by the robot itself.
The robot incubates the plates for 60 minutes at room temperature, and then stops the reaction by pipetting 70 μl of dowex resin suspension into the reaction mix. Three cycles of mixing are done immediately after the addition of the resin.
Another mixing cycle is performed after all the plates are stopped, this time using normal tips: the plates are then allowed to rest for about one hour in order to maximize ATP capture. At this point, 20 μl of the supernatant are transferred into 384-Optiplates (Perkin-Elmer), with 70 μl of Microscint 40 (Perkin-Elmer); after 5 min of orbital shaking the plates are read on a Perkin-Elmer Top Count radioactivity counter.
Data are analysed by an internally customized version of the SW package “Assay Explorer” that provides either % inhibition for primary assays or sigmoidal fittings of the ten-dilutions curves for IC50 determination, for the secondary assays/hit confirmation routines.

AKT-1, sequence (P31749 whole entry): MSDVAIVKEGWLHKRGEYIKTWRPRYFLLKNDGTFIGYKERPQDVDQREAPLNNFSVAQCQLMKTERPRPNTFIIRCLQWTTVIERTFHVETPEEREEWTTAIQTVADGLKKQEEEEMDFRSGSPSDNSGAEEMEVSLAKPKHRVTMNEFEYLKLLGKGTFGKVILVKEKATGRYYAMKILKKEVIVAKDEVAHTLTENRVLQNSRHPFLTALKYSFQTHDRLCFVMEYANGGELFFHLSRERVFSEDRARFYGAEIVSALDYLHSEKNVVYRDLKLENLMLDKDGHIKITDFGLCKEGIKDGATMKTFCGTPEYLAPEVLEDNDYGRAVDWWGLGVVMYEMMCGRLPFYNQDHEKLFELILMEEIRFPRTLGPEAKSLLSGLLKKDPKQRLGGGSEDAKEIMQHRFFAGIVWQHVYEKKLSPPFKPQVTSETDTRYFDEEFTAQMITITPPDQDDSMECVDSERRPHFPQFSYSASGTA
Cdc7/Dbf4, sequence (O00311 whole entry): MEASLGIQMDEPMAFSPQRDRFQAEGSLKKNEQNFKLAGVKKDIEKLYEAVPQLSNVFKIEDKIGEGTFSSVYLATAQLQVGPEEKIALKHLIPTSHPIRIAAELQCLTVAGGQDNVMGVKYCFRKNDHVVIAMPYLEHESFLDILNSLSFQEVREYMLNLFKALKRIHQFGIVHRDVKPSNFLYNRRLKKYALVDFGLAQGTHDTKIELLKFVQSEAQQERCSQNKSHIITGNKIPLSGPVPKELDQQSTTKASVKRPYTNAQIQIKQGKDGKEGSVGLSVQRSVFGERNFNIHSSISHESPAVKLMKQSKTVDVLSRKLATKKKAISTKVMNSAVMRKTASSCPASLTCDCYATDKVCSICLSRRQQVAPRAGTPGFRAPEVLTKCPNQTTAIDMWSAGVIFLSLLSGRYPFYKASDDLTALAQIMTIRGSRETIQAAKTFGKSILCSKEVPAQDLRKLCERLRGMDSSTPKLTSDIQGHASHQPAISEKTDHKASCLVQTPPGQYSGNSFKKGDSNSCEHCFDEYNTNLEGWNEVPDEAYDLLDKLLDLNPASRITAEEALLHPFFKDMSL
Cdc7/Dbf4, sequence (Q9UBU7 whole entry partner): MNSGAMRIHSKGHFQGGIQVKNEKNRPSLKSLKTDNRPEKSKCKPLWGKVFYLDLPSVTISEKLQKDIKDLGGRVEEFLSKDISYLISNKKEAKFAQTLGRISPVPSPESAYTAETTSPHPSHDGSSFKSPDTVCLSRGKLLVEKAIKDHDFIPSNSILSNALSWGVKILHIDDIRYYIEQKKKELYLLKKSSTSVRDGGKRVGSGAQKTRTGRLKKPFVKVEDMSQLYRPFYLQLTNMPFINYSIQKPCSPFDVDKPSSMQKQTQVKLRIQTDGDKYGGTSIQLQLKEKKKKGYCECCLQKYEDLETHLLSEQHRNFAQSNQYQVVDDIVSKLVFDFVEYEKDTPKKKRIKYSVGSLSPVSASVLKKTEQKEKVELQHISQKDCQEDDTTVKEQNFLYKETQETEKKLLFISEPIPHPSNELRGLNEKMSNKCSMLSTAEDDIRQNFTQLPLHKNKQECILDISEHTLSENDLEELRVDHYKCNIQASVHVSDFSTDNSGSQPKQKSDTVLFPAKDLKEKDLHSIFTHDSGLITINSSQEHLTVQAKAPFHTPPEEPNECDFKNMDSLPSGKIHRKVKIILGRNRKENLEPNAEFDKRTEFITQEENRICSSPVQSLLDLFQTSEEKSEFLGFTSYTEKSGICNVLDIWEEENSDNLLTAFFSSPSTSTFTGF

Compound	IC50 (Cdc7/Dbf4)	IC50 (AKT-1)
CC(C)(C)OC(=O)NC[C@H](Cc1ccccc1)NC(=O)c1c[nH]c2c1CCc1cnccc1-2 [E11, tert-Butyl {(2S)-2-[(4,5-dihydro-1H-pyrrolo[2,3-f]isoquinolin-3-ylcarbonyl)amino]-3-phenylpropyl}carbamate]		< 500 nM
Cn1c(-c2ccccc2)c(C(N)=O)c2ccc3n[nH]cc3c21 [C2, 1-Methyl-2-phenyl-1,7-dihydro-1,6,7-triaza-as-indacene-3-carboxylic acid amide]	< 100 nM	
Cn1c(Cl)c(C(N)=O)c2ccc3[nH]ncc3c21 [C1, 2-Chloro-1-methyl-1,6-dihydro-1,6,7-triaza-as-indacene-3-carboxylic acid amide]	< 100 nM	
NC[C@H](Cc1ccccc1)NC(=O)c1c[nH]c2c1CCc1cnccc1-2 [E15, N-[(1S)-2-Amino-1-benzylethyl]-4,5-dihydro-1H-pyrrolo[2,3-f]isoquinoline-3-carboxamide]		< 500 nM
Cn1cc(C(=O)O)c2ccc3[nH]ncc3c21 [B2, 1-Methyl-1,6-dihydro-1,6,7-triaza-as-indacene-3-carboxylic acid]	< 100 nM	
CC(C)(C)OC(=O)NC[C@H](Cc1ccccc1)NC(=O)c1cn(CC(F)(F)F)c2c1CCc1cnccc1-2 [E12, Tert-Butyl [(2S)-3-phenyl-2-({[1-(2,2,2-trifluoroethyl) -4,5-dihydro-1H-pyrrolo[2,3-f]isoquinolin-3-yl]carbonyl}amino)propyl]carbamate]		< 500 nM
O=C(O)c1cn(CC(F)(F)F)c2c1CCc1cnccc1-2 [E7, 1-(2,2,2-Trifluoroethyl)-4,5-dihydro-1H-pyrrolo[2,3-f]isoquinoline-3-carboxylic acid]	< 1000 nM	
NC[C@H](Cc1ccccc1)NC(=O)c1cn(CCO)c2c1CCc1cnccc1-2 [E21, N-[(1S)-2-Amino-1-benzylethyl]-1-(2-hydroxyethyl)-4,5-dihydro-1H-pyrrolo[2,3-f]isoquinoline-3-carboxamide]		< 500 nM
O=C(O)c1c[nH]c2c1CCc1cnccc1-2 [E6, 4,5-Dihydro-1H-pyrrolo[2,3-f]isoquinoline-3-carboxylic acid]	< 1000 nM	
NC[C@H](Cc1ccccc1)NC(=O)c1cn(CC(F)(F)F)c2c1CCc1cnccc1-2 [E14, N-[(1S)-2-Amino-1-benzylethyl]-1-(2,2,2-trifluoroethyl)-4,5-dihydro-1H-pyrrolo[2,3-f]isoquinoline-3-carboxamide]		< 500 nM
Cn1cc(C(N)=O)c2ccc3n[nH]cc3c21 [B3, 1-Methyl-1,7-dihydro-1,6,7-triaza-as-indacene-3-carboxylic acid amide]	< 100 nM	
NC(=O)c1c[nH]c2c1CCc1cnccc1-2 [E10, 4,5-Dihydro-1H-pyrrolo[2,3-f]isoquinoline-3-carboxylic acid amide]	< 1000 nM	

Next, values leading:

IC50 (Cdc7/Dbf4)	IC50 (AKT-1)	Compound
< 100 nM		O=Cc1c(-c2ccncc2)[nH]c2c1ccc1cnccc12 [H1, 2-Pyridin-4-yl-1H-pyrrolo[2,3-f]isoquinoline-3-carbaldehyde]
< 100 nM		NC(=O)c1c(-c2ccccc2)[nH]c2c1ccc1cnc(N)nc12 [N9, 8-Amino-2-phenyl-1H-1,7,9-triaza-cyclopenta[a]naphthalene-3-carboxylic acid amide]
< 100 nM		NC(=O)c1c(-c2ccncc2)[nH]c2c1ccc1cnccc12 [H3, 2-Pyridin-4-yl-1H-pyrrolo[2,3-f]isoquinoline-3-carboxylic acid amide]
< 1000 nM		Cn1c2c(c(C(N)=O)c1-c1ccccc1)CCc1cnc(N)nc1-2 [N4, 8-Amino-1-methyl-2-phenyl-4,5-dihydro-1H-1,7,9-triaza-cyclopenta[a]naphthalene-3-carboxylic acid amide]
< 100 nM		O=C(O)c1c(-c2ccc(Br)cc2)[nH]c2c1ccc1cnccc12 [G5, 2-(4-Bromo-phenyl)-1H-pyrrolo[2,3-f]isoquinoline-3-carboxylic acid]
< 1000 nM		O=Cc1c(-c2ccc(N3CCOCC3)cc2)[nH]c2c1ccc1cnccc12 [G7, 2-(4-Morpholin-4-yl-phenyl)-1H-pyrrolo[2,3-f]isoquinoline-3-carbaldehyde]
< 100 nM		Cn1c(-c2ccccc2)c(C(N)=O)c2ccc3cnc(N)nc3c21 [N10, 8-Amino-1-methyl-2-phenyl-1H-1,7,9-triaza-cyclopenta[a]naphthalene-3-carboxylic acid amide]
< 1000 nM		O=C(O)c1cc2c([nH]1)-c1ccncc1CC2 [L2, 4,5-Dihydro-1H-pyrrolo[2,3-f]isoquinoline-2-carboxylic acid]
	< 500 nM	NC[C@H](Cc1ccccc1)NC(=O)c1cc2c([nH]1)-c1ccncc1CC2 [L6, N-[(1S)-2-Amino-1-benzylethyl]-4,5-dihydro-1H-pyrrolo[2,3-f]isoquinoline-2-carboxamide]
< 1000 nM		CCOC(=O)c1c(Br)[nH]c2c1CCc1cnccc1-2 [F1, 2-Bromo-4,5-dihydro-1H-pyrrolo[2,3-f]isoquinoline-3-carboxylic acid ethyl ester hydrobromide]
	< 500 nM	NC[C@H](Cc1ccccc1)NC(=O)c1cc2c(n1CC(F)(F)F)-c1ccncc1CC2 [L9, N-[(1S)-2-Amino-1-benzylethyl]-1-(2,2,2-trifluoroethyl)-4,5-dihydro-1H-pyrrolo[2,3-f]isoquinoline-2-carboxamide]
< 100 nM		Cc1ccccc1-c1c(C(N)=O)c2c(n1C)-c1ccncc1CC2 [F5, 1-Methyl-2-o-tolyl-4,5-dihydro-1H-pyrrolo[2,3-f]isoquinoline-3-carboxylic acid amide]
< 100 nM		NC(=O)c1c(-c2ccccc2)[nH]c2c1ccc1cnccc12 [G3, 2-Phenyl-1H-pyrrolo[2,3-f]isoquinoline-3-carboxylic acid amide]
< 100 nM		NC(=O)c1c(-c2ccc(Br)cc2)[nH]c2c1ccc1cnccc12 [G6, 2-(4-Bromo-phenyl)-1H-pyrrolo[2,3-f]isoquinoline-3-carboxylic acid amide]
